Laboratory results published in the NIST ThermoML archive (doi:10.1016/j.fluid.2014.07.004).

Key:
[1] = 298.15 K; 101.33 kPa; Liquid; Vibrating tube method
[2] = xn = mol fraction of the nth substance listed; conditions: 298.15 K, 101 kPa, Liquid, Vibrating tube method
[3] = refractive index (Na D-line) (dimensionless); xn = mol fraction of the nth substance listed; conditions: 298.15 K, 101 kPa, Liquid, Standard Abbe refractometry

COc1ccccc1 [anisole]
Conditions | mass density [kg/m3]
[1] | 989.42

COc1ccccc1 [anisole] + CO
Conditions | mass density, [2] [kg/m3] | refractive index, [3]
x2 = 0.0498 | 985.45 | 1.5105
x2 = 0.1003 | 981.36 | 1.5064
x2 = 0.2003 | 972.63 | 1.4974
x2 = 0.3001 | 962.6 | 1.4865
x2 = 0.4002 | 950.84 | 1.4749
x2 = 0.4997 | 936.67 | 1.4609
x2 = 0.5999 | 919.46 | 1.445
x2 = 0.7001 | 898.19 | 1.4238
x2 = 0.8 | 871.05 | 1.398
x2 = 0.8999 | 835.51 | 1.3658
x2 = 0.95 | 813.27 | 1.3488

COc1ccccc1 [anisole] + COC(=O)OC
Conditions | mass density, [2] [kg/m3] | refractive index, [3]
x1 = 0.0502 | 1058.1 | 1.3759
x1 = 0.0997 | 1053.35 | 1.3847
x1 = 0.1995 | 1044.2 | 1.402
x1 = 0.2996 | 1035.64 | 1.4178
x1 = 0.3999 | 1027.62 | 1.4334
x1 = 0.4998 | 1020.13 | 1.4485
x1 = 0.5999 | 1013.15 | 1.4629
x1 = 0.6999 | 1006.64 | 1.4766
x1 = 0.8 | 1000.51 | 1.4898
x1 = 0.9003 | 994.65 | 1.5027
x1 = 0.9503 | 991.82 | 1.5087

COC(=O)OC [dimethyl carbonate]
Conditions | mass density [kg/m3]
[1] | 1063.26

COC(=O)OC [dimethyl carbonate] + CO
Conditions | mass density, [2] [kg/m3] | refractive index, [3]
x2 = 0.0496 | 1056.77 | 1.3658
x2 = 0.1 | 1049.84 | 1.365
x2 = 0.1997 | 1034.4 | 1.3627
x2 = 0.3 | 1016.89 | 1.3607
x2 = 0.3999 | 997.15 | 1.3578
x2 = 0.5 | 974.61 | 1.3543
x2 = 0.5999 | 948.66 | 1.3506
x2 = 0.6999 | 918.36 | 1.3463
x2 = 0.7999 | 882.55 | 1.341
x2 = 0.9 | 839.54 | 1.3346
x2 = 0.9499 | 814.64 | 1.331

CO [methanol]
Conditions | mass density [kg/m3]
[1] | 786.59

Oc1ccccc1 [phenol]
Conditions | mass density [kg/m3]
[1] | 1058.51
